Data: ChEMBL document CHEMBL2413072, “Synthesis and in vitro anticancer studies of novel C-2 arylidene congeners of lantadenes” (2013)

Key:
Type in all cases: functional
[1] = test system: HCT-116; assay: Growth inhibition of human HCT116 cells by sulforhodamine B assay
[2] = test system: NCI-H522; assay: Growth inhibition of human NCI-H522 cells by sulforhodamine B assay
[3] = test system: NCI-H460; assay: Growth inhibition of human NCI-H460 cells by sulforhodamine B assay
[4] = test system: NCI-H226; assay: Growth inhibition of human NCI-H226 cells by sulforhodamine B assay
[5] = test system: HOP-62; assay: Growth inhibition of human HOP62 cells by sulforhodamine B assay
[6] = test system: A549; assay: Growth inhibition of human A549/ATCC cells by sulforhodamine B assay
[7] = test system: SNB-19; assay: Growth inhibition of human SNB19 cells assessed as cell growth at 10^-8 M by sulforhodamine B assay; settings: read-out: Activity
[8] = test system: SF-539; assay: Growth inhibition of human SF539 cells assessed as cell growth at 10^-8 M by sulforhodamine B assay; settings: read-out: Activity
[9] = test system: NCI-H322M; assay: Growth inhibition of human NCI-H322M cells assessed as cell growth at 10^-8 M by sulforhodamine B assay; settings: read-out: Activity
[10] = test system: RXF 393; assay: Growth inhibition of human RXF393 cells by sulforhodamine B assay
[11] = test system: CAKI-1; assay: Growth inhibition of human CAKI-1 cells by sulforhodamine B assay
[12] = test system: A498; assay: Growth inhibition of human A498 cells by sulforhodamine B assay
[13] = test system: UACC-62; assay: Growth inhibition of human UACC62 cells by sulforhodamine B assay
[14] = test system: SF-295; assay: Growth inhibition of human SF295 cells by sulforhodamine B assay
[15] = test system: MDA-MB-231; assay: Growth inhibition of human MDA-MB-231 cells assessed as cell growth at 10^-4 M by sulforhodamine B assay; settings: read-out: Activity
[16] = test system: UO-31; assay: Growth inhibition of human UO31 cells assessed as cell growth at 10^-4 M by sulforhodamine B assay; settings: read-out: Activity
[17] = test system: OVCAR-4; assay: Growth inhibition of human OVCAR4 cells assessed as cell growth at 10^-4 M by sulforhodamine B assay; settings: read-out: Activity
[18] = test system: IGROV-1; assay: Growth inhibition of human IGROV1 cells assessed as cell growth at 10^-4 M by sulforhodamine B assay; settings: read-out: Activity
[19] = test system: UACC-62; assay: Growth inhibition of human UACC62 cells assessed as cell growth at 10^-4 M by sulforhodamine B assay; settings: read-out: Activity
[20] = test system: UACC-257; assay: Growth inhibition of human UACC257 cells assessed as cell growth at 10^-4 M by sulforhodamine B assay; settings: read-out: Activity
[21] = test system: SK-MEL-5; assay: Growth inhibition of human SK-MEL-5 cells assessed as cell growth at 10^-4 M by sulforhodamine B assay; settings: read-out: Activity
[22] = test system: SK-MEL-28; assay: Growth inhibition of human SK-MEL-28 cells assessed as cell growth at 10^-4 M by sulforhodamine B assay; settings: read-out: Activity
[23] = test system: Malme-3M; assay: Growth inhibition of human MALME-3M cells assessed as cell growth at 10^-4 M by sulforhodamine B assay; settings: read-out: Activity
[24] = test system: NCI-H226; assay: Growth inhibition of human NCI-H226 cells assessed as cell growth at 10^-4 M by sulforhodamine B assay; settings: read-out: Activity
[25] = test system: SR; assay: Growth inhibition of human SR cells assessed as cell growth at 10^-4 M by sulforhodamine B assay; settings: read-out: Activity
[26] = test system: A498; assay: Growth inhibition of human A498 cells assessed as cell growth at 10^-6 M by sulforhodamine B assay; settings: read-out: Activity
[27] = test system: OVCAR-8; assay: Growth inhibition of human OVCAR8 cells assessed as cell growth at 10^-6 M by sulforhodamine B assay; settings: read-out: Activity
[28] = test system: UACC-257; assay: Growth inhibition of human UACC257 cells assessed as cell growth at 10^-6 M by sulforhodamine B assay; settings: read-out: Activity
[29] = test system: MDA-MB-435; assay: Growth inhibition of human MDA-MB-435 cells assessed as cell growth at 10^-6 M by sulforhodamine B assay; settings: read-out: Activity
[30] = test system: Malme-3M; assay: Growth inhibition of human MALME-3M cells assessed as cell growth at 10^-6 M by sulforhodamine B assay; settings: read-out: Activity
[31] = test system: HT-29; assay: Growth inhibition of human HT-29 cells assessed as cell growth at 10^-6 M by sulforhodamine B assay; settings: read-out: Activity
[32] = test system: OVCAR-5; assay: Growth inhibition of human OVCAR5 cells assessed as cell growth at 10^-7 M by sulforhodamine B assay; settings: read-out: Activity
[33] = test system: OVCAR-3; assay: Growth inhibition of human OVCAR3 cells assessed as cell growth at 10^-7 M by sulforhodamine B assay; settings: read-out: Activity
[34] = test system: SK-MEL-28; assay: Growth inhibition of human SK-MEL-28 cells assessed as cell growth at 10^-7 M by sulforhodamine B assay; settings: read-out: Activity
[35] = test system: U-251; assay: Growth inhibition of human U251 cells assessed as cell growth at 10^-7 M by sulforhodamine B assay; settings: read-out: Activity
[36] = test system: TK-10; assay: Growth inhibition of human TK10 cells assessed as cell growth at 10^-8 M by sulforhodamine B assay; settings: read-out: Activity
[37] = test system: RXF 393; assay: Growth inhibition of human RXF393 cells assessed as cell growth at 10^-8 M by sulforhodamine B assay; settings: read-out: Activity
[38] = read-out: LC50 (the source's name)
[39] = read-out: pLC50 (the source's name) (converted)

Q: Which results are given for `CC(C)=CC(=O)O[C@@H]1CC(C)(C)C[C@H]2C3=CC[C@@H]4[C@@]5(C)CCC(=O)C(C)(C)[C@@H]5CC[C@@]4(C)[C@]3(C)CC[C@@]12C(=O)O`?
A: GI50 ([1]; read-out: GI50): 2.35 µM; LC50 ([1]; read-out: LC50): > 100 µM; TGI ([1]; read-out: TGI): 53.5 µM; GI50 ([1]; read-out: pGI50 (converted)): 2.34 µM; LC50 ([1]; read-out: pLC50 (converted)): > 100 µM; TGI ([1]; read-out: pTGI (converted)): 53.7 µM; GI50 ([2]; read-out: GI50): 3.14 µM; CC50 [2, 38]: > 100 µM; TGI ([2]; read-out: TGI): 29.4 µM; GI50 ([2]; read-out: pGI50 (converted)): 3.16 µM; CC50 [2, 39]: > 100 µM; TGI ([2]; read-out: pTGI (converted)): 29.5 µM; GI50 ([3]; read-out: GI50): 2.21 µM; LC50 ([3]; read-out: LC50): 85.5 µM; TGI ([3]; read-out: TGI): 14.6 µM; GI50 ([3]; read-out: pGI50 (converted)): 2.19 µM; LC50 ([3]; read-out: pLC50 (converted)): 85.1 µM; TGI ([3]; read-out: pTGI (converted)): 14.5 µM; GI50 ([4]; read-out: GI50): 5.68 µM; LC50 ([4]; read-out: LC50): > 100 µM; TGI ([4]; read-out: TGI): > 100 µM; GI50 ([4]; read-out: pGI50 (converted)): 5.62 µM; LC50 ([4]; read-out: pLC50 (converted)): > 100 µM; TGI ([4]; read-out: pTGI (converted)): > 100 µM; GI50 ([5]; read-out: GI50): 9.26 µM; LC50 (concentration killing 50% of cells) ([5]; read-out: LC50): > 100 µM; TGI ([5]; read-out: TGI): 49.8 µM; GI50 ([5]; read-out: pGI50 (converted)): 9.33 µM; LC50 (concentration killing 50% of cells) ([5]; read-out: pLC50 (converted)): > 100 µM; TGI ([5]; read-out: pTGI (converted)): 50.1 µM; GI50 ([6]; read-out: GI50): 0.797 µM; CC50 [6, 38]: > 100 µM; TGI ([6]; read-out: TGI): 15.6 µM; GI50 ([6]; read-out: pGI50 (converted)): 0.794 µM; CC50 [6, 39]: > 100 µM; TGI ([6]; read-out: pTGI (converted)): 15.5 µM; growth at 0.01 µM [7]: 98%; growth at 0.01 µM [8]: 93%; growth at 0.01 µM [9]: 93%; GI50 ([10]; read-out: GI50): 3.31 µM; CC50 [10, 38]: 63.5 µM; TGI ([10]; read-out: TGI): 16.3 µM; GI50 ([10]; read-out: pGI50 (converted)): 3.31 µM; CC50 [10, 39]: 63.1 µM; TGI ([10]; read-out: pTGI (converted)): 16.2 µM; GI50 ([11]; read-out: GI50): 3.84 µM; CC50 [11, 38]: > 100 µM; TGI ([11]; read-out: TGI): 84.8 µM; GI50 ([11]; read-out: pGI50 (converted)): 3.8 µM; CC50 [11, 39]: > 100 µM; TGI ([11]; read-out: pTGI (converted)): 85.1 µM; GI50 ([12]; read-out: GI50): 1.59 µM; CC50 [12, 38]: > 100 µM; TGI ([12]; read-out: TGI): 14.2 µM; GI50 ([12]; read-out: pGI50 (converted)): 1.58 µM; CC50 [12, 39]: > 100 µM; TGI ([12]; read-out: pTGI (converted)): 14.1 µM; GI50 ([13]; read-out: GI50): 2.47 µM; CC50 [13, 38]: 48.5 µM; TGI ([13]; read-out: TGI): 14.2 µM; GI50 ([13]; read-out: pGI50 (converted)): 2.45 µM; CC50 [13, 39]: 49 µM; TGI ([13]; read-out: pTGI (converted)): 14.1 µM; GI50 ([14]; read-out: GI50): 1.7 µM; CC50 [14, 38]: 72.7 µM; TGI ([14]; read-out: TGI): 11.9 µM; GI50 ([14]; read-out: pGI50 (converted)): 1.7 µM; CC50 [14, 39]: 72.4 µM; TGI ([14]; read-out: pTGI (converted)): 12 µM; growth at 100 µM [15]: -64%; growth at 100 µM [16]: -13%; growth at 100 µM [17]: 10%; growth at 100 µM [18]: -23%; growth at 100 µM [19]: -80%; growth at 100 µM [20]: -15%; growth at 100 µM [21]: -78%; growth at 100 µM [22]: 6%; growth at 100 µM [23]: -5%; growth at 100 µM [24]: 12%; growth at 100 µM [25]: -15%; growth at 1 µM [26]: 61%; growth at 1 µM [27]: 79%; growth at 1 µM [28]: 83%; growth at 1 µM [29]: 92%; growth at 1 µM [30]: 91%; growth at 1 µM [31]: 82%; growth at 0.1 µM [32]: 91%; growth at 0.1 µM [33]: 100%; growth at 0.1 µM [34]: 99%; growth at 0.1 µM [35]: 90%; growth at 0.01 µM [36]: 96%; growth at 0.01 µM [37]: 97%
